# According to ChEMBL document CHEMBL1153270, “Fluoroalkyl alpha side chain containing 3,4-diamino-cyclobutenediones as potent and orally bioavailable CXCR2-CXCR1 dual antagonists” (Bioorg Med Chem Lett, 2009):
# What was measured:
# [1] = biological target: T1, C-X-C chemokine receptor type 2 (Homo sapiens, UniProt P25025); assay: Binding affinity to CXCR2
# T1 sequence (P25025 whole entry): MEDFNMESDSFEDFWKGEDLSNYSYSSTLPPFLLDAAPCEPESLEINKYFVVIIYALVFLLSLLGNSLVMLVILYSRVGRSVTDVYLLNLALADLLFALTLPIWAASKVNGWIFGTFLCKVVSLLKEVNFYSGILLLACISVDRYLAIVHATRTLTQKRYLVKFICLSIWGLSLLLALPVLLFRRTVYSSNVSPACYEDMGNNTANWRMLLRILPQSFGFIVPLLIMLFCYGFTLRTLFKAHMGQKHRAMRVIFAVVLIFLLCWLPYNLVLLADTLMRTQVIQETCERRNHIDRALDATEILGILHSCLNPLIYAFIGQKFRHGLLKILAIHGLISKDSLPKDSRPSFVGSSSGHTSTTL
# [2] = biological target: T2, C-X-C chemokine receptor type 1 (Homo sapiens, UniProt P25024); assay: Binding affinity to CXCR1
# T2 sequence (P25024 whole entry): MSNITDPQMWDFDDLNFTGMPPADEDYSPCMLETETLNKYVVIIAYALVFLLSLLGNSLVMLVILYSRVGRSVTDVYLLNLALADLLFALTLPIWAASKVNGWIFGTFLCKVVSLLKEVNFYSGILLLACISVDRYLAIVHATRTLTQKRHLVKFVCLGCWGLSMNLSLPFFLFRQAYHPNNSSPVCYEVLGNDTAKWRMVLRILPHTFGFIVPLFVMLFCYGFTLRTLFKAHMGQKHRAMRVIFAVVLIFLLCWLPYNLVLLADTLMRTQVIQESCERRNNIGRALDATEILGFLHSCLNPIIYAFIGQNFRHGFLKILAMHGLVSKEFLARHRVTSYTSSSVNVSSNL
# [3] = AUC in po dosed rat; assay type: ADME, organism-based; conditions: plasma
Structure (SMILES),Ki [1] [nM],Ki [2] [nM],AUC [3] [µM·h]
CN(C)C(=O)c1cccc(Nc2c(N[C@@H](c3ccccc3)C(F)(F)F)c(=O)c2=O)c1O,14,40,–
CN(C)C(=O)c1cccc(Nc2c(N[C@@H](c3cc(Cl)co3)C(F)(F)F)c(=O)c2=O)c1O,5,20,–
Cc1ccc([C@H](Nc2c(Nc3cccc(C(=O)N(C)C)c3O)c(=O)c2=O)C(C)(F)F)o1,10,6,3
Cc1ccoc1[C@H](Nc1c(Nc2cccc(C(=O)N(C)C)c2O)c(=O)c1=O)C(C)(F)F,12,30,–
Cc1ccc([C@H](Nc2c(Nc3cccc(C(=O)N(C)C)c3O)c(=O)c2=O)[C@H](C)F)o1,13,16,3.6
Cc1coc([C@H](Nc2c(Nc3cccc(C(=O)N(C)C)c3O)c(=O)c2=O)[C@H](C)F)c1,4,5,3.6
Cc1ccc([C@H](Nc2c(Nc3cccc(C(=O)N(C)C)c3O)c(=O)c2=O)C(F)(F)C(F)(F)F)o1,4,10,–
CN(C)C(=O)c1cccc(Nc2c(N[C@@H](c3cc(Cl)c(Cl)o3)C(F)(F)F)c(=O)c2=O)c1O,5,103,–
Cc1coc([C@H](Nc2c(Nc3cccc(C(=O)N(C)C)c3O)c(=O)c2=O)C(C)(F)F)c1,14,6,–
CC[C@@H](Nc1c(Nc2cccc(C(=O)N(C)C)c2O)c(=O)c1=O)c1ccc(C)o1 [NAVARIXIN ANHYDROUS],–,–,49

# The remaining lines, values ahead:
Ki [1] [nM],Ki [2] [nM],AUC [3] [µM·h],Structure (SMILES)
4,40,17.4,CC[C@@H](Nc1c(Nc2cccc(C(=O)N(C)C)c2O)c(=O)c1=O)c1ccccc1
7,43,–,C[C@H](F)[C@@H](Nc1c(Nc2cccc(C(=O)N(C)C)c2O)c(=O)c1=O)c1ccco1
5,100,–,CN(C)C(=O)c1cccc(Nc2c(N[C@H](CC(F)(F)F)c3ccco3)c(=O)c2=O)c1O
400,–,–,CN(C)C(=O)c1cccc(Nc2c(N[C@H](CCC(F)(F)F)c3ccco3)c(=O)c2=O)c1O
2,6,–,CN(C)C(=O)c1cccc(Nc2c(N[C@@H](c3ccco3)C(F)(F)F)c(=O)c2=O)c1O
7,34,–,CN(C)C(=O)c1cccc(Nc2c(N[C@@H](c3ccc(Cl)o3)C(F)(F)F)c(=O)c2=O)c1O
9,–,–,C=CC(F)(F)[C@@H](Nc1c(Nc2cccc(C(=O)N(C)C)c2O)c(=O)c1=O)c1ccc(C)o1
8,24,–,Cc1ccc([C@H](Nc2c(Nc3cccc(C(=O)N(C)C)c3O)c(=O)c2=O)C(C)(C)F)o1
5,9,19.8,Cc1ccc([C@H](Nc2c(Nc3cccc(C(=O)N(C)C)c3O)c(=O)c2=O)C(F)(F)F)o1
5,8,9.17,CN(C)C(=O)c1cccc(Nc2c(N[C@@H](c3ccc4c(c3)OCO4)C(F)(F)F)c(=O)c2=O)c1O
5,22,–,CCC(F)(F)[C@@H](Nc1c(Nc2cccc(C(=O)N(C)C)c2O)c(=O)c1=O)c1ccc(C)o1
2,25,–,CC(C)c1coc([C@H](Nc2c(Nc3cccc(C(=O)N(C)C)c3O)c(=O)c2=O)C(C)(F)F)c1
